Data set [1] relates to LYXFDLBC2835 (patient-derived xenograft lymphoma). Kind of data set: Cell cytotoxicity CellTiter-Glo, LYXFDLBC2835. The data set is classed as cell-based. How it is done: (§1) Cells were seeded in 96-well microplates and treated with compounds or cisplatin (as a positive control) at 9 increasing concentrations in technical triplicate. […] On day 1, 90 μL of various cell suspensions with the number of cells ranging from 5000-8000 cells/well were seeded into wells of a 96-well plate (Corning). The number of cells to be seeded was previously determined. • 2. All 96-wells plates with cells were placed in an incubator overnight at 37° C. with 5% CO2. • 3. On day 2, cells were observed under a microscope ensuring the cells treated with vehicle control were in good condition. • 4. A dilution series of the test compounds and cisplatin were prepared at 10× the final concentrations required. 10 μL/well of 10× compound solution was added to the corresponding plates. The final volume was 100 μL/well for all the plates. Final DMSO concentration was 0.1%. • 5. On day 5 (after 72 hours of incubation), 50 μL of CTG reagent was added to each well. • 6. Contents were mixed for 5 minutes on an orbital shaker to facilitate cell lysis. • 7. The plate was allowed to incubate at room temperature for 10 minutes to stabilize luminescent signals.
(§2) The effects of Comparator Compound 1 and certain Example compounds on the viability of various cell lines (LYXFDLBC2835, LYXFDLBC4009 and LYXFDLBC411 (patient-derived xenograft lymphoma), HT1080 (human fibrosarcoma), CA46 (human B cell lymphoma), RKO (human colon carcinoma), NCI-H1703 (human lung squamous cell carcinoma), MX-1 (human breast carcinoma), DU4475 (human breast carcinoma), LU2511 (human lung large cell undifferentiated carcinoma), LU0884 (human lung squamous cell carcinoma)), Panc-1 (human pancreatic carcinoma), MCF-7 (human breast cancer), SW480 (human colon adenocarcinoma) and HCC1806 (human breast ductal carcinoma) were performed using the standard CellTiter-Glo assay (CTG, Promega) as described in Biological Example 2. Compounds which show efficacy in these assays are expected to be useful as agents for treating or preventing hyperproliferative disorders such as cancer.

In data set [2] the test system is MX-1 (human breast carcinoma). Description: Cell cytotoxicity CellTiter-Glo, MX-1. The data set is classed as cell-based. The note with it: MX1. How it is done: as §1, with “signals. […]” for “signals.”
The test system of the next data set is Caco-2 cells. Description: Caco-2 cell permeability assay. The class given is in vitro ADME. The note with it: apical to basal Papp, 2 μM, pH 7.4, 2.5 h. The method in brief: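 Caco-2 monolayers grown 10 days were dosed at 2 μM (1% DMSO) on the donor side in HBSS/10 mM HEPES pH 7.4, for both AB and BA directions, then incubated 2.5 h at 37 °C without shaking. Donor and acceptor samples were quantified by LC-MS/MS to give Papp. Wells that failed a Lucifer Yellow integrity check (>1% passage) were excluded.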
For orientation: Caco-2 monolayers are a common model of the intestinal barrier.

Data set [3] has as its system SU-DHL-10 cell line (human B cell lymphoma). Description: Cell cytotoxicity in SU-DHL-10 cell line (CellTiter-Glo). The class given is cell-based. To be noted: Homo sapiens, SU-DHL10, 72 h, 72 h treatment, CTG. The method, boiled down: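 Cells seeded at 5000-8000/well, dosed next day with 9 concentrations in triplicate (DMSO 0.1% final) and incubated 72 h at 37° C, 5% CO2. Viability by CellTiter-Glo luminescence normalised to vehicle (100%) and medium blank; IC50 from sigmoidal nonlinear regression.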

The test system of data set [4] is LU0884 (human lung squamous cell carcinoma). Description: Cell cytotoxicity CellTiter-Glo, LU0884. The data set is classed as cell-based. How it is done:
as §1, with “signals. […]” for “signals.”

The test system of data set [5] is LU2511 (human lung large cell undifferentiated carcinoma). Kind of data set: Cell cytotoxicity CellTiter-Glo, LU2511. The class given is cell-based. Here is the method: as §1, with “signals. […]” for “signals.”
On the technique in general: In ATP-based viability assays light output follows the ATP content of the culture.

Data set [6] concerns LYXFDLBC4009 (patient-derived xenograft lymphoma). Kind of data set: Cell cytotoxicity CellTiter-Glo, LYXFDLBC4009. The class given is cell-based. How it is done: as §1, §2
Data set [7] has as its system LYXFDLBC4113 (patient-derived xenograft lymphoma). Description: Cell cytotoxicity CellTiter-Glo, LYXFDLBC4113. The data set is classed as cell-based. Here is the method: as §1, §2

For orientation: IC50 means the concentration at which inhibition is half-maximal.

Turning to `Cc1c(CCOc2cc(Cl)ccc2-c2ccc3ncc(CCN)n3c2)c(C(=O)N(C)C)nn1C` [Comparator Compound 1, 4-(2-{2-[3-(2-aminoethyl)imidazo[1,2-a]pyridin-6-yl]-5-chlorophenoxy}ethyl)-N,N,1,5-tetramethyl-1H-pyrazole-3-carboxamide, reference compound], the IC50 turned out to be 130 nM in data set [1]; 40 nM in data set [2]; 5 nM in data set [3]; 44 nM in data set [4]; 9 nM in data set [5]; 1540 nM in data set [6]. In data set [7], this compound showed an IC50 of 890 nM. For the same compound, the “Caco-2 A-B” value in the data set on Caco-2 cells came to 0.0 ×10⁻⁶ cm/s.

Turning to `CNCc1cnc2ccc(-c3ccc(F)c(F)c3OCCc3c(C(O)C(C)(C)C)nn(C)c3C)cn12` (single isomer, unassigned) [Example 12, 1-(4-(2-(2,3-difluoro-6-(3-((methylamino)methyl)imidazo[1,2-a]pyridin-6-yl)phenoxy)ethyl)-1,5-dimethyl-1H-pyrazol-3-yl)-2,2-dimethylpropan-1-ol], the IC50 in data set [1] turned out to be 10 nM; in data set [3] it was 0.6 nM; in data set [4] it was 3 nM; in data set [5], 0.07 nM; in data set [6] it was 3 nM; in data set [7] it was 3 nM. Also, the “Caco-2 A-B” value with Caco-2 cells turned out to be 0.95 ×10⁻⁶ cm/s.

The record behind these values is patent publication US12599676B2, “Cytotoxic imidazo[1,2-A]pyridine compounds and their use in therapy” (MyricX Pharma Limited, priority 2022, dated 2026).
